From patent publication US11331327B2, “Antibacterial use of halogenated salicylanilides” (UNION therapeutics A/S, priority 2014, dated 2022)
“And” between values parts separate entries of the source, which are not always exact repeats. Equal values may be shown once. Read-outs that look alike come from different tables or passages of the source. Marks after values point to notes of the source that are not given here.

How the values were obtained:
[1] = tested on: S. pyogenes strains; assay: Minimum Inhibitory Concentration (MIC) assay, Example 1, S. pyogenes strains; assay type: cell-based, Streptococcus pyogenes; conditions: Streptococcus pyogenes, read-out: Mic100 S. pyogenes
Protocol: (§1) Strains were conserved in Luria Bertani (LB) Broth (S. aureus) or Brain Heart Infusion (BHI) (S. pyogenes) supplemented with glycerol 15% (v/v) at −80° C., and reactivated by isolation on LB (S. aureus) or BHI (S. pyogenes) agar plates. Strains were cultivated in Mueller Hinton (MH) Broth-cation adjusted (S. aureus) supplemented with lysed horse blood 2.5% (v/v) (S. pyogenes). All strains were cultivated at 37° C., aerobically for S. aureus strains.
(§2) Bacterial cultures were stopped in their exponential growth phase and plates were inoculated with the approximate concentration of 10^3 cells per well. Plates were incubated at 37° C. for 18 hours (S. aureus) or 24 hours (S. pyogenes). Optical density at a wavelength of 600 nm was measured at the end of the incubation time. […] Experiments were performed at least as triplicate biological replicates with all strains.

[2] = tested on: MRSA 01, MRSA 15, MRSA 16; assay: Mutational frequency evaluation, Example 1; assay type: cell-based, Staphylococcus aureus; conditions: for Resistance mutation rate at MIC × 1: tested against one strain: MRSA 01; for mutational frequency at MIC×1: text summary of Table 4
Protocol: Adequate dilutions were plated on plates without the compound.
Viable cell growth was enumerated after 48 hours of incubation at 37° C.
Ten replicates were carried out for each strain and fusidic acid, mupirocin and retapamulin were used as controls for the MRSA 01 strain.

[3] = tested on: S. aureus strains; assay: Minimum Inhibitory Concentration (MIC) assay, Example 1, S. aureus strains; assay type: cell-based; conditions: Staphylococcus aureus, read-out: Mic100 S. aureus
Protocol: as §1, §2

[4] = cited from earlier work; for LD50 rats p.o: Table 3
[5] = in vivo; cited from earlier work
[6] = cited from earlier work
[7] = tested against one strain: S. pyogenes 01

| Structure (SMILES) | MIC [1, 7] | Resistance mutation rate at MIC × 1 [2] | mutational frequency at MIC×1 [2] | MIC ([3]; S. aureus strains) | LD50 rats p.o [4] [mg/kg] | LD50 ([4]; rats, p.o.) | safety margin after oral administration [5] | MIC ([3]; tested against one strain: MRSA 01) | MIC [1] | MIC ([3]; MRSA) | LD50 median ([4]; rats, p.o., median of studies) [mg/kg] | LD50 mice p.o ([6]; Table 3) [mg/kg] | LD50 ([6]; mice, p.o.) [mg/kg] |
| --- | --- | --- | --- | --- | --- | --- | --- | --- | --- | --- | --- | --- | --- |
| Cc1cc(C(C#N)c2ccc(Cl)cc2)c(Cl)cc1NC(=O)c1cc(I)cc(I)c1O (stereo not drawn) [Closantel, N-[5-chloro-4-[(4-chlorophenyl)cyanomethyl]-2-methylphenyl]-2-hydroxy-3,5-diiodobenzamide] | 12.8 µg/mL and 19 µM | = 2 × 10^−8* | 2×10^−8 | ≤ 1.7 µg/mL and ≤ 2.5 µM | 300 | 262 to 342 mg/kg | – | – | – | – | – | – | – |
| O=C(Nc1cc(Cl)cc(Cl)c1O)c1c(O)c(Cl)cc(Cl)c1Cl [Oxyclozanide, 3,3′,5,5′,6-pentachloro-2′-hydroxysalicylanilide] | 6.4 µg/mL and 15.9 µM | – | 1×10^−7 | – | 980 to 3500 | 980 to 3519 mg/kg | Low safety margin | 1.6 µg/mL and 4 µM | – | – | – | – | – |
| O=C(Nc1ccc(Oc2ccc(Cl)cc2)c(Cl)c1)c1cc(I)cc(I)c1O [Rafoxanide, 3′-chloro-4′-(p-chlorophenoxy)-3,5-diiodosalicylanilide] | – | = 5 × 10^−9* | 5×10^−9 | – | 1500 | 980->2000 mg/kg | – | – | 6.4 µg/mL and 10 µM | 0.8 µg/mL and 1.25 µM | > 1490 | 270 | 232 to 300 |
